Data from ChEMBL document CHEMBL3297662, “Synthesis and identification of cytotoxic diphyllin glycosides as vacuolar H(+)-ATPase inhibitors” (Eur J Med Chem, 2014).
Active and inactive are the calls of the source. The rule behind the calls is not given here.

Tests used:
[1] = test system: MCF7; assay: Cytotoxicity against human MCF7 cells assessed as growth inhibition after 72 hrs by MTT assay; type: functional, cell-based; conditions: MCF7, 72 h
[2] = test system: HeLa; assay: Cytotoxicity against human HeLa cells assessed as growth inhibition after 72 hrs by MTT assay; type: functional, cell-based
[3] = test system: HepG2; assay: Cytotoxicity against human HepG2 cells assessed as growth inhibition after 72 hrs by MTT assay; type: functional, cell-based; conditions: HepG2, 72 h
[4] = test system: HCT-116; assay: Cytotoxicity against human HCT116 cells assessed as growth inhibition after 72 hrs by MTT assay; type: functional, cell-based; conditions: HCT-116, 72 h
[5] = test system: U-251; assay: Cytotoxicity against human U251 cells assessed as growth inhibition after 72 hrs by MTT assay; type: functional, cell-based; conditions: U-251, 72 h
[6] = test system: HepG2; assay: Inhibition of vacuolar H+-ATPase in human HepG2 cells assessed as release of phosphate after 72 hrs by malachite green dye-based spectrophotometric analysis; type: cell-based
[7] = test system: HepG2; assay: Inhibition of vacuolar H+-ATPase in human HepG2 cells assessed as neutralization of lysosomal pH at 10 to 100 nM after 48 hrs by LysoTracker Red dye-based confocal microscopic analysis; type: cell-based

Row | SMILES | IC50 [1] [nM] | IC50 [2] [nM] | IC50 [3] [nM] | IC50 [4] [nM] | IC50 [5] [nM] | inhibition [6] | inhibition [7]
1 | COc1cc2c(O[C@@H]3OC[C@@H](OC)[C@H](OC)[C@H]3O[C@@H]3O[C@H](CO)[C@@H](O)[C@H](O)[C@H]3O)c3c(c(-c4ccc5c(c4)OCO5)c2cc1OC)C(=O)OC3 | > 200 | > 200 | > 200 | > 200 | > 200 |  | 
2 | COc1cc2c(O[C@@H]3OC[C@@H](OC)[C@H](OC)[C@H]3O[C@@H]3O[C@H](COC(C)=O)[C@@H](OC(C)=O)[C@H](OC(C)=O)[C@H]3OC(C)=O)c3c(c(-c4ccc5c(c4)OCO5)c2cc1OC)C(=O)OC3 | 92 | 74 | 39 | 82 | 101 | Dose-dependent effect | Active
3 | COc1cc2c(O[C@@H]3OC[C@@H](OC)[C@H](OC)[C@H]3O)c3c(c(-c4ccc5c(c4)OCO5)c2cc1OC)C(=O)OC3 [CLEISTANTHIN] | 190 | 67 | 36 | 31 | 97 | Dose-dependent effect | Active
4 | CC(=O)O[C@H]1C(=O)[C@@]2(C)[C@H]([C@H](OC(=O)c3ccccc3)[C@]3(O)C[C@H](OC(=O)[C@H](O)[C@@H](NC(=O)c4ccccc4)c4ccccc4)C(C)=C1C3(C)C)[C@]1(OC(C)=O)CO[C@@H]1C[C@@H]2O [PACLITAXEL] | 45 | 96 | 84 | 69 | 128 |  | 
